Data reported in patent US7767204B2, “Method and composition for protecting neuronal tissue from damage induced by elevated glutamate levels” (Yeda Research And Development Co. Ltd., priority 2002, dated 2010).

Key:
[1] = system: glutamate in blood cells and plasma (GPT, GOT, 2-ketoglutarate dehydrogenase, GDH); experiment: In-vitro glutamate levels and conversion in blood cell fraction and plasma; assay type: biochemical, rat; settings: for blood cell (cellular) glutamate levels / plasma glutamate levels: incubation of blood with GDH co-factors in vitro
Experimental: (§1) Induction of rat blood glutamate metabolism and glutamate concentration determination—Fresh rat blood samples incubated at 37° C. were supplemented every 15 minutes or as noted with oxaloacetate and/or pyruvate (final concentration of 1 mM at pH 7.4).
(§2) At indicated time intervals, 150 μl aliquots were removed and centrifuged at 1,300×g for 7 minutes. Plasma volume (i.e., supernatant) was measured and was combined with identical volume of perchloric acid (PCA) to precipitate protein content. Precipitation was allowed to proceed for 10 minutes on ice and thereafter samples were centrifuged. Cell pellet (i.e., erythrocytes, lymphocytes and platelets) was lysed by osmotic shock following resuspension in double distilled water up to a final volume of 150 μl. A second step of protein precipitation was then performed by adding 150 μl of PCA [[…]]. Plasma and cell PCA-precipitated fractions were centrifuged at 16,000×g for 10 minutes and pellets were discarded.
Supernatant glutamate concentration was determined according to the fluorometric procedure of Graham and Aprison [(1996) Anal. Biochem. 15(3):487-97]. In brief: 20 μl aliquot of PCA precipitated fraction was added to 480 μl HG buffer containing 15 u of glutamate dehydrogenase in 0.2 mM NAD, 0.3 M glycine, 2.4% hydrazine hydrate adjusted to pH 6.8 with H2SO4 [1 N] and incubated at room temperature for 30-45 minutes. Fluorescence was measured at 460 nm following excitation at 350 nm. All measurements were performed alongside a glutamate standard curve at a glutamate concentration range of 0-6 μM. All glutamate measurements were performed in duplicates.
Results—Glutamate levels were therefore determined individually in blood cell fractions (closed symbols) and in plasma (open symbols), following repeated additions (arrows) of 1 mM pyruvate (squares), 1 mM oxaloacetate (triangles) or of a mixture of 1 mM pyruvate and 1 mM oxaloacetate (diamonds) (FIG. 2A). Glutamate determination was conducted as described in Example 1.

[2] = system: rat blood plasma glutamate (GOT, GPT); experiment: Glutamate conversion in rat blood plasma by pyruvate and oxaloacetate analogues; assay type: biochemical; settings: for % of remaining Glutamate: rat blood plasma, 1 mM of each co-substrate
Experimental: A number of glutamate modifying enzymes were tested for their ability to enhance glutamate conversion in rat blood plasma. Table 1 below summarizes the results obtained with 1 mM of each co-substrate.

[3] = Blood concentrations of pyruvate and oxaloacetate during intravenous infusion; assay type: in vivo, rat; settings: intravenous 50 μMoles/min each for 30 min
Experimental: Glutamate analyses of in-vivo treated blood samples were carried out according to the fluorometric procedure of Graham and Aprison [(1996) Anal. Biochem. 15(3):487-97]. Pyruvate concentration determination—Blood Pyruvate concentration was measured using the Sigma Diagnostics Pyruvate reagents according to manufacturer's instructions. In brief: the procedure utilizes lactate dehydrogenase which in the presence of excess NADH catalyzes almost complete conversion of pyruvate into lactate with a concomitant production of NAD. The reduction of absorbance at 340 nm due to the oxidation of NADH into NAD is the measure of the amount of pyruvate originally present.
(§3) Oxaloacetate concentration determination—Blood oxaloacetate concentration was measured using the same procedure as for pyruvate but using malate dehydrogenase which catalyses the conversion of oxaloacetate into malate along with the oxidation of NADH into NAD.
Results—The effect on glutamate levels via pyruvate and oxaloacetate administration through an intravenous catheter at a rate of 50 μMoles/minute for a duration of 30 minutes was determined. Blood concentrations of glutamate, pyruvate and oxaloacetate were monitored in parallel. […] However, as soon as the administration of pyruvate and oxaloacetate was stopped, their blood concentration decreased and the glutamate level increased concomitantly.

[4] = Glutamate life time in blood after bolus intravenous injection of labelled glutamate; assay type: in vivo, rat
Experimental: Results—Glutamate normalization may be accomplished by estimating the rate of disappearance of [^14C] glutamate from the blood, by methodology detailed in the preceding example. Administration of a bolus intravenous injections of 11 μCi radio-labeled glutamate in the absence or presence of non-radioactive glutamate was conducted and the presence of radioactivity in blood was monitored over time (FIG. 19).

[5] = system: brain to blood glutamate efflux; experiment: Brain-to-blood [3H]Glu efflux after intracerebroventricular injection; settings: first 10 minutes after injection in lateral ventricle, n=8
Experimental: Catheterization of the tail vein (for drug injections) and of the femoral vein (for blood aliquot withdrawals) was performed using PE10 polyethylene tubing linked to PE50 polyethylene tubing. […] A 27G steel cannula was implanted in the right lateral ventricle using the following stereotactic coordinates: 0.8 mm posterior to bregma; lateral 1.4 mm; depth: 4 mm from skull or 3.5 mm from dura. A [^3H] glutamate solution in phosphate buffered saline (PBS) was injected into the lateral ventricle through the implanted cannula using a Hamilton syringe (25 μl) connected to PE20 tube filled with solution. A total volume of 11 μl was injected within approximately 2 minutes.
For radioactivity determination, 50 μl blood samples were diluted in 500 μl H2O and added to 16 ml of scintillation fluid. Measured cpms were corrected for quenching as determined by comparing the measured cpms of a set volume of [^3H] glutamate added to water or to diluted blood. Body temperature was maintained with a lamp and rectal temperature was monitored. Rat pulse rate was monitored using a Periflux system 500 and a laser Doppler probe placed onto the skull.
Intravenous injections of pyruvate and oxaloacetate diluted in phosphate buffered saline (PBS) were carried out at a rate of 0.05 ml/minute for 30 minutes with a Pharmacia pump P-1.

[6] = Conversion of diethyloxaloacetate into oxaloacetate in rat blood and tissue homogenates; assay type: in vitro ADME; settings: 10 mM diethyloxaloacetate
Experimental: as §3
The use of an oxaloacetate prodrug, which following in vivo administration, is converted to oxaloacetate, may obviate this problem. Thus the commercially available oxaloacetate diethylester (FIG. 27B) was considered in this context. Conversion of oxaloacetate diethylester into oxaloacetate following incubation with tissue homogenates derived from rat liver, colon, ileum, jejunum and duodenum was investigated.

[7] = system: blood and plasma glutamate (GOT); experiment: Effect of diethyloxaloacetate on glutamate in rat blood and plasma in vitro; assay type: biochemical; settings: 10 mM
Experimental: Thereafter, the effect of diethyloxaloacetate on Glutamate levels was assessed. Glutamate levels were determined in rat blood samples upon incubation in the absence or presence of 10 mM diethyloxaloacetate. […] FIG. 31 represents the amount of plasma glutamate converted probably into α-ketoglutarate following the activation of GOT as a function of time by the presence of 10 mM diethyloxaloacetate.

[8] = system: blood glutamate (blood resident GPT and GOT); experiment: In-vitro scavenging of glutamate in whole rat blood by activation of resident enzymes; assay type: biochemical; settings: 37° C., 1 mM co-substrate and/or 2.5 u/ml GPT
Experimental: as §1, §2
Supernatant glutamate concentration was determined according to the fluorometric procedure of Graham and Aprison [(1996) Anal. Biochem. 15(3):487-97]. […] Fluorescence was measured at 460 nm following excitation at 350 nm. […]

[9] = biological target: T1, glutamate, 2-ketoglutarate (Escherichia coli, UniProt P00509); settings: cited from earlier work
T1 sequence (P00509 whole entry, looked up): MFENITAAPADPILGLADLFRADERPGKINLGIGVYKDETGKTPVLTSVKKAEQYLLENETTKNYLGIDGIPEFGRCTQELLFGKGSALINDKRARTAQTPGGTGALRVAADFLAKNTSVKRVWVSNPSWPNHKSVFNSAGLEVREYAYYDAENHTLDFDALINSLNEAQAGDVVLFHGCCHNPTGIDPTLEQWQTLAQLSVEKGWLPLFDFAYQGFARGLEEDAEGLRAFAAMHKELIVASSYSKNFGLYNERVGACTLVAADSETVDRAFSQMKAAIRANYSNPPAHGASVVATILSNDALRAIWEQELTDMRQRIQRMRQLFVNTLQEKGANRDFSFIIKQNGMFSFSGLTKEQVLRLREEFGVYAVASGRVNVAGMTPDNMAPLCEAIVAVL

[10] = normal blood glutamate concentration of 209 μM
[11] = rat blood in vitro, 24 hours, 37° C.

Nc1ncnc2c1ncn2[C@@H]1O[C@H](COP(=O)(O)OP(=O)(O)O)[C@@H](O)[C@H]1O [ADP]
blood cell (cellular) glutamate levels [1]: did not significantly alter glutamate levels
plasma glutamate levels [1]: increased plasma glutamate levels

O=CC(=O)O [Glyoxalate]
% of remaining Glutamate [2]: 74%

CC(C)C[C@H](N)C(=O)O [Leucine]
blood cell (cellular) glutamate levels [1]: did not significantly alter glutamate levels
plasma glutamate levels [1]: increased plasma glutamate levels

NC(=O)c1ccc[n+]([C@@H]2O[C@H](COP(=O)([O-])OP(=O)(O)OC[C@H]3O[C@@H](n4cnc5c(N)ncnc54)[C@H](O)[C@@H]3O)[C@@H](O)[C@H]2O)c1 [NAD]
blood cell (cellular) glutamate levels [1]: decrease in blood cell glutamate levels
plasma glutamate levels [1]: increase in plasma glutamate levels

O=C(O)CC(=O)C(=O)O [Oxaloacetate]
blood concentration built up [3]: 450 µM

CC(=O)C(=O)O [Pyruvate]
blood concentration built up [3]: 450 µM

O=CCCC(=O)O [Succinic semialdehyde]
% of remaining Glutamate [2]: 78%

N[C@@H](CCC(=O)O)C(=O)O [[^3H] glutamate, glutamate]
glutamate eliminated per minute ([4]; blood glutamate 3.4 mM): 69 nmoles glutamate/ml blood
elimination half-life in blood ([4]; blood glutamate 3.4 mM after intraperitoneal 2 mMoles of glutamate): 24.6 min
elimination rate constant ([4]; normal blood glutamate concentration): 0.035 min⁻¹
elimination half-life in blood [4, 10]: 19.3 min
glutamate eliminated per minute [4, 10]: 5.4 nmoles of glutamate/ml blood
rate of appearance of radioactivity in blood, of the amount input in the brain per minute [5]: 0.8%±0.1

CCOC(=O)CC(=O)C(=O)OCC [diethyloxaloacetate]
increase in basal oxaloacetate levels ([6]; liver and sections of rat gut mucosa, within 15 minutes): 400%
increase of blood oxaloacetate [6, 11]: 240%
glutamate blood levels [7, 11]: did not affect glutamate blood levels
plasma glutamate ([7]; rat blood plasma in vitro, following 9 hours incubation): significant increase in plasma glutamate

Cc1ncc(COP(=O)(O)O)c(C=O)c1O [pyridoxal phosphate]
enhancement of pyruvate and oxaloacetate-mediated decrease in cellular or plasma glutamate ([1]; 15 μM pyridoxal phosphate): No significant effects

CCC(=O)C(=O)O [α-Ketobutyrate]
decrease in plasma glutamate levels ([2]; 0.5 mM, rat plasma): no effect
glutamate degradation as compared to basal glutamate levels ([2]; 2 mM, rat plasma): 40%
conversion of glutamate in the presence of oxaloacetate ([2]; in the presence of 0.25 mM oxaloacetate): enhanced conversion of glutamate
% of remaining Glutamate [2]: 97%

O=C(O)C(=O)CO [β-Hydroxypyruvate]
% of remaining Glutamate [2]: 74%

O=C(O)C(=O)Cc1ccccc1 [β-Phenylpyruvate]
% of remaining Glutamate [2]: 76%

α-Isocaproate
% of remaining Glutamate [2]: 83%

B1: GPT: glutamate pyruvate transaminase enzyme added at 2.5 u/ml (protein, UniProt P24298 2-496, looked up)
Alanine aminotransferase 1: ASSTGDRSQAVRHGLRAKVLTLDGMNPRVRRVEYAVRGPIVQRALELEQELRQGVKKPFTEVIRANIGDAQAMGQRPITFLRQVLALCVNPDLLSSPNFPDDAKKRAERILQACGGHSLGAYSVSSGIQLIREDVARYIERRDGGIPADPNNVFLSTGASDAIVTVLKLLVAGEGHTRTGVLIPIPQYPLYSATLAELGAVQVDYYLDEERAWALDVAELHRALGQARDHCRPRALCVINPGNPTGQVQTRECIEAVIRFAFEERLFLLADEVYQDNVYAAGSQFHSFKKVLMEMGPPYAGQQELASFHSTSKGYMGECGFRGGYVEVVNMDAAVQQQMLKLMSVRLCPPVPGQALLDLVVSPPAPTDPSFAQFQAEKQAVLAELAAKAKLTEQVFNEAPGISCNPVQGAMYSFPRVQLPPRAVERAQELGLAPDMFFCLRLLEETGICVVPGSGFGQREGTYHFRMTILPPLEKLRLLLEKLSRFHAKFTLEYS
blood glutamate levels [8]: significant increase in blood glutamate

B2: E. coli GOT: E. coli glutamate oxaloacetate transaminase, GenBank Accession No. D90731.1 (protein, UniProt P00509 1-396, looked up)
Aspartate aminotransferase: MFENITAAPADPILGLADLFRADERPGKINLGIGVYKDETGKTPVLTSVKKAEQYLLENETTKNYLGIDGIPEFGRCTQELLFGKGSALINDKRARTAQTPGGTGALRVAADFLAKNTSVKRVWVSNPSWPNHKSVFNSAGLEVREYAYYDAENHTLDFDALINSLNEAQAGDVVLFHGCCHNPTGIDPTLEQWQTLAQLSVEKGWLPLFDFAYQGFARGLEEDAEGLRAFAAMHKELIVASSYSKNFGLYNERVGACTLVAADSETVDRAFSQMKAAIRANYSNPPAHGASVVATILSNDALRAIWEQELTDMRQRIQRMRQLFVNTLQEKGANRDFSFIIKQNGMFSFSGLTKEQVLRLREEFGVYAVASGRVNVAGMTPDNMAPLCEAIVAVL
affinity for 2-ketoglutarate [9]: about 0.2 mM
affinity for glutamate [9]: about 8 mM
